System: EBC-1
Assay: Cell killing assay of ADCs (CCK8), EBC-1
Assay type: cell-based, human
Settings: Table 10A; Target cell: EBC-1; 3-5 days
Protocol: Killing of target cells MDA-MB-468, EBC-1, and NCI-H1975 cells (Cell Bank of the Chinese Academy of Sciences) by the ADC molecules formed by conjugating the […] anti-EGFR/cMet antibody molecules described above to a toxin was assayed by the […].
The cells (100 µL, 1 × 10^4) resuspended in a cell culture medium were seeded into each well of a 96-well plate and cultured in an incubator at 37 °C with 5% CO2 overnight. The next day, 100 µL of serially diluted V-20-Fc-PEG-EVC-MMAE, V-23-Fc-PEG-EVC-MMAE, and V-26-Fc-PEG-EVC-MMAE, as well as positive control ADCs ABBV399 and AZD9592 were added to corresponding wells. The cells were cultured for another 3-5 days. Then, 20 µL of CCK8 (Shanghai Life iLab Biotech, Cat. No. AC11L054) was added to each well. The mixtures were cultured in an incubator at 37 °C with 5% CO2 until color development. The absorbance at 450 nm was recorded using a microplate reader (Molecular Device, SpectraMax M5).
The cell viability was calculated by the following formula: percentage cell viability = [(As - Ab) / (Ac - Ab)] × 100. As = experimental well absorbance (cells, culture medium, CCK8, and ADCs); Ab = blank well absorbance (culture medium and CCK8); Ac = control well absorbance (cells, culture medium, and CCK8).

Q: Which IC50 does the source give for ABBV399 [reference compound] here?
A: Its IC50 is 0.194 nM.
